The values below come from US6696494B2, “α-hydroxyarylbutanamine inhibitors of aspartyl protease” (Enanta Pharmaceuticals, Inc., priority 2001, dated 2004).

This assay concerns the target HIV-1 protease (Human immunodeficiency virus type 1 group M subtype B, UniProt P04585). Briefly: Inhibition of microbial expressed viral protease (HIV-1 protease), method of Toth and Marshall. It counts as biochemical. As for the experimental part: Biological Assay for Inhibition of Microbial Expressed Viral Protease
The inhibition constants against HIV-1 protease were measured using the method described by M. V. Toth and G. R. Marshall, Int. J. Peptide protein Res., 1990, 544. The method described M. W. Pennington et al., Peptides 1990, Gimet, E. and D. Andrew, Eds., Escom; Leiden, Netherlands (1990) may also be used. The potency is measured as IC50in μM. The person of skill would accept these tests as predictive of the compounds' utility in vivo to treat HIV infected patients.
The term IC50 denotes the concentration that inhibits the measured activity by half. Compound `Cc1ccc(OCC(=O)N[C@@H](Cc2ccccc2)[C@H](O)CCc2ccccc2C(=O)NC(C)(C)C)cc1` [Example 001186] displayed an IC50 of 100 to 10000 nM.

Turning to `CC(C)(C)NC(=O)c1ccccc1CC[C@@H](O)[C@H](Cc1ccccc1)NC(=O)c1ccccc1Nc1ccccc1` [Example 001020], the IC50 is above 10000 nM. Turning to `CC1CCCC(C)C1OCC(=O)NC(Cc1ccccc1)C(O)CCc1ccccc1C(=O)NC(C)(C)C` (centres unmarked) [Example 001230], the IC50 lay in the range of 100 to 10000 nM. The compound `CC(C)(C)NC(=O)c1ccccc1CC[C@@H](O)[C@H](Cc1ccccc1)NC(=O)c1ccc(N)cc1Cl` [Example 000944] came in with an IC50 above 10000 nM. Compound `CC(C)(C)NC(=O)c1ccccc1CC[C@@H](O)[C@H](Cc1ccccc1)NS(=O)(=O)c1cccc2nonc12` [Example 001012] had an IC50 of 100 to 10000 nM.

Compound `CC(C)(C)NC(=O)c1ccccc1CC[C@@H](O)[C@H](Cc1ccccc1)NC(=O)COc1ccccc1C(F)(F)F` [Example 001204] came in with an IC50 of 100 to 10000 nM. As for `CN(C)c1ccc(C(=O)N[C@@H](Cc2ccccc2)[C@H](O)CCc2ccccc2C(=O)NC(C)(C)C)cc1` [Example 000954], the figure is above 10000 nM; as for `Cc1cc(Br)cc(C)c1OCC(=O)N[C@@H](Cc1ccccc1)[C@H](O)CCc1ccccc1C(=O)NC(C)(C)C` [Example 001218], below 100 nM. As for `CCC(CC)OCC(=O)N[C@@H](Cc1ccccc1)[C@H](O)CCc1ccccc1C(=O)NC(C)(C)C` [Example 001231], the figure is 100 to 10000 nM; as for `CCOC(=O)N[C@@H](Cc1ccccc1)[C@H](O)CCc1ccccc1C(=O)NCCC(C)C` [Example 000770], 100 to 10000 nM; as for `CC(C)(C)NC(=O)c1ccccc1CC[C@@H](O)[C@H](Cc1ccccc1)NC(=O)NC(=O)CCl` [Example 000869], above 10000 nM. Consider `CCc1ccc(NC(=O)N[C@@H](Cc2ccccc2)[C@H](O)CCc2ccccc2C(=O)NC(C)(C)C)cc1` [Example 000893], for which the half-maximal inhibitory concentration (IC50) was in the range of 100 to 10000 nM. On to `CC(Oc1ccccc1)C(=O)NC(Cc1ccccc1)C(O)CCc1ccccc1C(=O)NC(C)(C)C` (centres unmarked) [Example 000243], for which the concentration for half-maximal inhibition (IC50) was 100 to 10000 nM.

The compound `CC(C)(C)NC(=O)c1ccccc1CC[C@@H](O)[C@H](Cc1ccccc1)NC(=O)CCc1ccccc1` [Example 000763] came in with an IC50 of 100 to 10000 nM. To `CC(C)(C)OC(=O)N[C@@H](Cc1ccccc1)[C@H](O)CCc1ccccc1C(=O)N[C@H](CO)c1ccccc1` [Example 001054] belongs 100 to 10000 nM; to `CC(C)(C)NC(=O)c1ccccc1CC[C@@H](O)[C@H](Cc1ccccc1)NC(=O)N1CCOCC1` [Example 001008], 100 to 10000 nM; to `CC(C)CNC(=O)c1ccccc1CC[C@@H](O)[C@H](Cc1ccccc1)NC(=O)OC(C)(C)C` [Example 000156], below 100 nM. As for `CC(C)(C)NC(=O)c1ccccc1CC[C@@H](O)[C@H](Cc1ccccc1)NC(=O)c1cc(=O)c2ccccc2o1` [Example 000974], the figure is above 10000 nM; as for `CC(C)(C)NC(=O)c1ccccc1CC[C@@H](O)[C@H](Cc1ccccc1)NC(=O)c1ccccc1` [Example 000245], 100 to 10000 nM. Turning to `CCCCNC(=O)c1ccccc1CC[C@@H](O)[C@H](Cc1ccccc1)NC(=O)OC(C)(C)C` [Example 000344], the IC50 lay within 100 to 10000 nM. For `CC(C)(C)NC(=O)c1ccccc1CC[C@@H](O)[C@H](Cc1ccccc1)NC(=O)O[C@H]1CCOC1` [Example 000180], the IC50 is below 100 nM. As for `Cc1cccc(C)c1C(=O)N[C@@H](Cc1ccccc1)[C@H](O)CCc1ccccc1C(=O)NC(C)(C)C` [Example 000951], the figure is below 100 nM. As for `CC(C)(C)NC(=O)c1ccccc1CCC(O)C(Cc1ccccc1)NC(=O)C(F)=Cc1ccccc1` (centres unmarked) [Example 000947], the figure is above 10000 nM. To `CCCCNC(=O)N[C@@H](Cc1ccccc1)[C@H](O)CCc1ccccc1C(=O)NC(C)(C)C` [Example 000891] belongs 100 to 10000 nM; to `Cc1cc(C(=O)O)ccc1OCC(=O)N[C@@H](Cc1ccccc1)[C@H](O)CCc1ccccc1C(=O)NC(C)(C)C` [Example 001279], 100 to 10000 nM. The compound `CC(C)(C)NC(=O)c1ccccc1CC[C@@H](O)[C@H](Cc1ccccc1)NC(=O)c1cc(C(F)(F)F)ccc1Cl` [Example 001036] gave an IC50 above 10000 nM. The compound `CC(C)(C)NC(=O)c1ccccc1CC[C@@H](O)[C@H](Cc1ccccc1)NS(=O)(=O)c1cccc2cccnc12` [Example 00878] returned an IC50 of 100 to 10000 nM. Take `Cc1cccc(C)c1OCC(=O)N[C@@H](Cc1ccccc1)[C@H](O)CCc1ccccc1C(=O)NC(C)(C)C` [Example 000987]: the half-maximal inhibitory concentration (IC50) was below 100 nM.

As to `CCCCCNC(=O)N[C@@H](Cc1ccccc1)[C@H](O)CCc1ccccc1C(=O)NC(C)(C)C` [Example 000890], the concentration for half-maximal inhibition (IC50) fell in the range of 100 to 10000 nM. To `CC(C)(C)NC(=O)c1ccccc1CC[C@@H](O)[C@H](Cc1ccccc1)NC(=O)COc1c(F)cccc1F` [Example 001214] belongs below 100 nM; to `CC(C)(C)NC(=O)c1ccccc1CC[C@@H](O)[C@H](Cc1ccccc1)NC(=O)c1cccc([N+](=O)[O-])c1Br` [Example 000946], above 10000 nM. To `Cc1ccc(C(=O)C=CC(=O)NC(Cc2ccccc2)C(O)CCc2ccccc2C(=O)NC(C)(C)C)cc1` (centres unmarked) [Example 000950] belongs above 10000 nM.

As to `Cc1ccc(CO)cc1C(=O)N[C@@H](Cc1ccccc1)[C@H](O)CCc1ccccc1C(=O)NC(C)(C)C` [Example 000895], the IC50 is below 100 nM. `CC(C)(C)NC(=O)c1ccccc1CC[C@@H](O)[C@H](Cc1ccccc1)NS(=O)(=O)c1cccc(Cl)c1Cl` [Example 001010] came in with a 50% inhibitory concentration (IC50) above 10000 nM. As for `CC(C)(C)NC(=O)c1ccccc1CC[C@@H](O)[C@H](Cc1ccccc1)NS(=O)(=O)c1ccc(Br)c(Cl)n1` [Example 000879], the figure is 100 to 10000 nM. As for `CC(C)(C)NC(=O)c1ccccc1CC[C@@H](O)[C@H](Cc1ccccc1)NS(=O)(=O)c1ccc(C(F)(F)F)cc1` [Example 000877], the figure is 100 to 10000 nM; as for `CC(C)(C)NC(=O)c1ccccc1CC[C@@H](O)[C@H](Cc1ccccc1)NC(=O)c1ccc(F)cc1F` [Example 000901], 100 to 10000 nM. `CCC(C)(C)c1ccc(S(=O)(=O)N[C@@H](Cc2ccccc2)[C@H](O)CCc2ccccc2C(=O)NC(C)(C)C)cc1` [Example 000875] displayed a concentration for half-maximal inhibition (IC50) of 100 to 10000 nM. To `Cc1c(O)cccc1C(=O)N[C@@H](Cc1ccccc1)[C@H](O)CCc1ccccc1C(=O)NC(C)(C)C` [Example 000972] belongs below 100 nM; to `CCc1ccc(S(=O)(=O)N[C@@H](Cc2ccccc2)[C@H](O)CCc2ccccc2C(=O)NC(C)(C)C)cc1` [Example 000874], 100 to 10000 nM. To `CC(C)(C)NC(=O)c1ccccc1CC[C@@H](O)[C@H](Cc1ccccc1)NC(=O)COc1cc(F)cc(F)c1` [Example 001182] belongs above 10000 nM. As for `CC(C)S(=O)(=O)N[C@@H](Cc1ccccc1)[C@H](O)CCc1ccccc1C(=O)NC(C)(C)C` [Example 000881], the figure is 100 to 10000 nM. In the case of `CC(C)(C)NC(=O)c1ccccc1CC[C@@H](O)[C@H](Cc1ccccc1)NC(=O)c1c(F)cccc1F` [Example 000969], the 50% inhibitory concentration (IC50) lay within 100 to 10000 nM. In the case of `CC(C)(C)NC(=O)c1ccccc1CC[C@@H](O)[C@H](Cc1ccccc1)NC(=O)COC1CCCCC1` [Example 001228], the IC50 was 100 to 10000 nM.

Compound `Cc1cc(Br)c(OCC(=O)N[C@@H](Cc2ccccc2)[C@H](O)CCc2ccccc2C(=O)NC(C)(C)C)c(Br)c1` [Example 001225] registered an IC50 of 100 to 10000 nM. In turn, `Cc1nocc1C(=O)N[C@@H](Cc1ccccc1)[C@H](O)CCc1ccccc1C(=O)NC(C)(C)C` [Example 001154] returned an IC50 of 100 to 10000 nM. To `COc1ccc(Br)c(C(=O)N[C@@H](Cc2ccccc2)[C@H](O)CCc2ccccc2C(=O)NC(C)(C)C)c1` [Example 000900] belongs 100 to 10000 nM; to `CC(C)(C)NC(=O)c1ccccc1CC[C@@H](O)[C@H](Cc1ccccc1)NC(=O)c1ccccc1C(=O)c1ccccc1N` [Example 001040], 100 to 10000 nM; to `Cc1ccc(CC[C@@H](O)[C@H](Cc2ccccc2)NC(=O)COc2c(C)cccc2C)c(C(=O)NC(C)(C)C)c1` [Example 001237], below 100 nM. To `CC(C)(C)NC(=O)c1ccccc1CC[C@@H](O)[C@H](Cc1ccccc1)NC(=O)COc1ccc(F)c(F)c1F` [Example 001227] belongs 100 to 10000 nM; to `CC(C)(C)NC(=O)c1ccccc1CC[C@@H](O)[C@H](Cc1ccccc1)NC(=O)COc1cccnc1Cl` [Example 001268], 100 to 10000 nM.

On to `CC(C)(C)NC(=O)c1ccccc1CC[C@@H](O)[C@H](Cc1ccccc1)NC(=O)COc1ccc2ccccc2c1` [Example 000760], for which the IC50 was in the range of 100 to 10000 nM. To `Cc1cc([N+](=O)[O-])cc(C)c1OCC(=O)N[C@@H](Cc1ccccc1)[C@H](O)CCc1ccccc1C(=O)NC(C)(C)C` [Example 001211] belongs 100 to 10000 nM.

`C[C@H](O)C(=O)N[C@@H](Cc1ccccc1)[C@H](O)CCc1ccccc1C(=O)NC(C)(C)C` [Example 000242]: the IC50 lay within 100 to 10000 nM. `CCNC(=O)N[C@@H](Cc1ccccc1)[C@H](O)CCc1ccccc1C(=O)NC(C)(C)C` [Example 000771] returned a half-maximal inhibitory concentration (IC50) of 100 to 10000 nM.

`Cc1cccc(C)c1OCC(=O)N[C@@H](Cc1ccccc1)[C@H](O)CCc1cccc(C)c1C(=O)NC(C)(C)C` [Example 001249] had an IC50 below 100 nM. Turning to `CCOC(=O)NC(Cc1ccccc1)C(O)C=Cc1ccccc1C(=O)NC(C)(C)C` (centres unmarked) [Example 000207], the 50% inhibitory concentration (IC50) was 100 to 10000 nM. Compound `Cc1c(O)cccc1OCC(=O)N[C@@H](Cc1ccccc1)[C@H](O)CCc1ccccc1C(=O)NC(C)(C)C` [Example 001246] showed a concentration for half-maximal inhibition (IC50) below 100 nM.

With `Cc1cccc(Cl)c1OCC(=O)N[C@@H](Cc1ccccc1)[C@H](O)CCc1ccccc1C(=O)NC(C)(C)C` [Example 001215], the IC50 was below 100 nM.
